# Assay results taken from PubChem BioAssay (NCI).
#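 The compound was tested at five concentrations on cells cultured in 96-well plates, with a 48-hour exposure period. TGI is the concentration that stops growth completely.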
# What was measured:
# Assay in all cases: DTP human tumour cell line panel, 48 h
# MDA-N = system: MDA-N
# SK-MEL-28 melanoma = system: SK-MEL-28 melanoma
# SF-295 CNS = system: SF-295 CNS
# SN12C renal = system: SN12C renal
# ACHN renal = system: ACHN renal
# HOP-92 NSCLC = system: HOP-92 NSCLC
# EKVX NSCLC = system: EKVX NSCLC
# OVCAR-3 ovarian = system: OVCAR-3 ovarian
# TK-10 renal = system: TK-10 renal
# HCC-2998 colon = system: HCC-2998 colon
# A549 NSCLC = system: A549 NSCLC
# SF-268 CNS = system: SF-268 CNS
# SNB-75 CNS = system: SNB-75 CNS
# SNB-19 CNS = system: SNB-19 CNS
# UO-31 renal = system: UO-31 renal
# HS 578T breast = system: HS 578T breast
# KM12 colon = system: KM12 colon
# UACC-62 melanoma = system: UACC-62 melanoma
# RPMI-8226 leukemia = system: RPMI-8226 leukemia
# SK-OV-3 ovarian = system: SK-OV-3 ovarian
# MOLT-4 leukemia = system: MOLT-4 leukemia
# HCT-116 colon = system: HCT-116 colon
# MDA-MB-435 = system: MDA-MB-435
# COLO 205 colon = system: COLO 205 colon
# SK-MEL-5 melanoma = system: SK-MEL-5 melanoma
# SR leukemia = system: SR leukemia
# HL-60(TB) leukemia = system: HL-60(TB) leukemia
# HOP-62 NSCLC = system: HOP-62 NSCLC
# A498 renal = system: A498 renal
# MALME-3M melanoma = system: MALME-3M melanoma
# HT29 colon = system: HT29 colon
# K-562 leukemia = system: K-562 leukemia
# SW-620 colon = system: SW-620 colon
# M14 melanoma = system: M14 melanoma
# NCI-H226 lung = system: NCI-H226 lung
# DU-145 prostate = system: DU-145 prostate
# SK-MEL-2 melanoma = system: SK-MEL-2 melanoma
# UACC-257 melanoma = system: UACC-257 melanoma
# MDA-MB-231 breast = system: MDA-MB-231 breast
# OVCAR-5 ovarian = system: OVCAR-5 ovarian
# LOX IMVI melanoma = system: LOX IMVI melanoma
# SF-539 CNS = system: SF-539 CNS
# BT-549 breast = system: BT-549 breast
# CCRF-CEM leukemia = system: CCRF-CEM leukemia
# U251 CNS = system: U251 CNS
# NCI-H460 lung = system: NCI-H460 lung
# NCI-H23 lung = system: NCI-H23 lung
# CAKI-1 renal = system: CAKI-1 renal
# MCF7 breast = system: MCF7 breast
# NCI/ADR-RES ovarian = system: NCI/ADR-RES ovarian
# OVCAR-4 ovarian = system: OVCAR-4 ovarian
# NCI-H522 lung = system: NCI-H522 lung
# IGROV1 ovarian = system: IGROV1 ovarian
# PC-3 prostate = system: PC-3 prostate
# 786-0 renal = system: 786-0 renal
# RXF 393 renal = system: RXF 393 renal
# T-47D breast = system: T-47D breast
# HCT-15 colon = system: HCT-15 colon
# OVCAR-8 ovarian = system: OVCAR-8 ovarian
smiles,measurement,setting,value
C=C(Cl)C(C)(Cl)CCC(Cl)C(C)C (stereo not drawn),TGI,MDA-N,> 100 µM
same,TGI,SK-MEL-28 melanoma,> 100 µM
same,TGI,SF-295 CNS,> 100 µM
same,TGI,SN12C renal,> 100 µM
same,TGI,ACHN renal,> 100 µM
same,TGI,HOP-92 NSCLC,> 100 µM
same,TGI,EKVX NSCLC,> 100 µM
same,TGI,OVCAR-3 ovarian,> 100 µM
same,TGI,TK-10 renal,> 100 µM
same,TGI,HCC-2998 colon,> 100 µM
same,TGI,A549 NSCLC,> 100 µM
same,TGI,SF-268 CNS,> 100 µM
same,TGI,SNB-75 CNS,> 100 µM
same,TGI,SNB-19 CNS,> 100 µM
same,TGI,UO-31 renal,> 100 µM
same,TGI,HS 578T breast,> 100 µM
same,TGI,KM12 colon,> 100 µM
same,TGI,UACC-62 melanoma,> 100 µM
same,TGI,RPMI-8226 leukemia,> 100 µM
same,TGI,SK-OV-3 ovarian,> 100 µM
same,TGI,MOLT-4 leukemia,> 100 µM
same,TGI,HCT-116 colon,> 100 µM
same,TGI,MDA-MB-435,> 100 µM
same,TGI,COLO 205 colon,> 100 µM
same,TGI,SK-MEL-5 melanoma,> 100 µM
same,TGI,SR leukemia,64.2 µM
same,TGI,HL-60(TB) leukemia,> 100 µM
same,TGI,HOP-62 NSCLC,> 100 µM
same,TGI,A498 renal,> 100 µM
same,TGI,MALME-3M melanoma,> 100 µM
same,TGI,HT29 colon,> 100 µM
same,TGI,K-562 leukemia,> 100 µM
same,TGI,SW-620 colon,> 100 µM
same,TGI,M14 melanoma,> 100 µM
same,TGI,NCI-H226 lung,> 100 µM
same,TGI,DU-145 prostate,> 100 µM
same,TGI,SK-MEL-2 melanoma,> 100 µM
same,TGI,UACC-257 melanoma,> 100 µM
same,TGI,MDA-MB-231 breast,> 100 µM
same,TGI,OVCAR-5 ovarian,> 100 µM
same,TGI,LOX IMVI melanoma,47.6 µM
same,TGI,SF-539 CNS,> 100 µM
same,TGI,BT-549 breast,> 100 µM
same,TGI,CCRF-CEM leukemia,> 100 µM
same,TGI,U251 CNS,> 100 µM
same,TGI,NCI-H460 lung,> 100 µM
same,TGI,NCI-H23 lung,> 100 µM
same,TGI,CAKI-1 renal,> 100 µM
same,TGI,MCF7 breast,> 100 µM
same,TGI,NCI/ADR-RES ovarian,> 100 µM
same,TGI,OVCAR-4 ovarian,> 100 µM
same,TGI,NCI-H522 lung,> 100 µM
same,TGI,IGROV1 ovarian,> 100 µM
same,TGI,PC-3 prostate,> 100 µM
same,TGI,786-0 renal,> 100 µM
same,TGI,RXF 393 renal,> 100 µM
COc1cc(C2c3cc4c(cc3OC(NCCO)C2C)OCO4)cc(OC)c1O (stereo not drawn),TGI,MDA-N,4.56 µM
same,TGI,SK-MEL-28 melanoma,> 100 µM
same,TGI,SF-295 CNS,> 100 µM
same,TGI,SN12C renal,> 100 µM
same,TGI,HOP-92 NSCLC,> 100 µM
same,TGI,OVCAR-3 ovarian,> 100 µM
same,TGI,TK-10 renal,> 100 µM
same,TGI,HCC-2998 colon,21.8 µM
same,TGI,A549 NSCLC,> 100 µM
same,TGI,SF-268 CNS,> 100 µM
same,TGI,SNB-75 CNS,77.3 µM
same,TGI,SNB-19 CNS,> 100 µM
same,TGI,UO-31 renal,> 100 µM
same,TGI,T-47D breast,> 100 µM
same,TGI,KM12 colon,> 100 µM
same,TGI,UACC-62 melanoma,> 100 µM
same,TGI,RPMI-8226 leukemia,19 µM
same,TGI,HCT-116 colon,> 100 µM
same,TGI,HCT-15 colon,46.9 µM
same,TGI,MDA-MB-435,6.34 µM
same,TGI,COLO 205 colon,84.2 µM
same,TGI,SK-MEL-5 melanoma,56.5 µM
same,TGI,MALME-3M melanoma,> 100 µM
same,TGI,HT29 colon,> 100 µM
same,TGI,SW-620 colon,> 100 µM
same,TGI,M14 melanoma,> 100 µM
same,TGI,NCI-H226 lung,> 100 µM
same,TGI,SK-MEL-2 melanoma,36.9 µM
same,TGI,MDA-MB-231 breast,> 100 µM
same,TGI,OVCAR-5 ovarian,> 100 µM
same,TGI,SF-539 CNS,42.2 µM
same,TGI,BT-549 breast,> 100 µM
same,TGI,U251 CNS,87.8 µM
same,TGI,NCI-H23 lung,> 100 µM
same,TGI,CAKI-1 renal,> 100 µM
same,TGI,MCF7 breast,> 100 µM
same,TGI,OVCAR-8 ovarian,> 100 µM
same,TGI,OVCAR-4 ovarian,> 100 µM
same,TGI,IGROV1 ovarian,> 100 µM
same,TGI,PC-3 prostate,> 100 µM
same,TGI,786-0 renal,> 100 µM
same,TGI,RXF 393 renal,> 100 µM
